Tests used:
green rice leafhoppers = test: Spray test on rice seedlings against green rice leafhoppers (Utility Example 1); assay type: in vivo, green rice leafhoppers (Nephotettix cincticeps); settings: 30% emulsifiable concentrate (Formulation Example 5) diluted 300-fold, 10 ml/pot, 24 hours
Procedure: To 30 parts of each of Compounds [1], [2], [5] to [13] and [17] to [19] was added 50 parts of xylene and 20 parts of Sorpol SM-200 (a surfactant, trademark of Toho Chemical Co., Ltd.). The mixture was stirred well and dissolved to obtain a 30% emulsifiable concentrate.
The emulsifiable concentrate prepared from Compounds [1], [2], [6], [7], [9], [10], [12] and [13] in Formulation Example 5 were each diluted 300-fold with water. Then, each of the dilutions was sprayed over rice seedlings 25 days after sowing at the rate of 10 ml/pot. The pot was covered with a wire-net and 15 green rice leafhoppers were released under the net. After 24 hours, the leafhoppers were examined for deaths. The mortality (%) was not less than 90% for each of Compounds [1], [2], [6], [7], [9], [10], [12] and [13].

[1] = system: green rice leafhoppers (Nephotettix cincticeps); test: Mortality test against green rice leafhoppers by topical application method (Test Example 2); assay type: in vivo; settings: 0.1% solution in acetone, female adults, 24 hours, 25° C.
Procedure: Each test compound was accurately weighed and an 0.1% solution in acetone was prepared. Female adults of green rice leafhopper (Nephotettix cincticeps) were anaesthetized with carbon dioxide gas and 0.5 µl of the above solution was micropipetted onto the thoracic abdominal part of each leafhopper. Then, the test leafhoppers were kept at 25° C. with access to rice plant seedlings. Each group comprised 15 green rice leafhoppers. After 24 hours, the leafhoppers were inspected for deaths and the mortality (%) was calculated for each compound.

[2] = Light stability test (Test Example 4); assay type: physicochemical; settings: direct sunlight between glass plates, 12° C., relative to aluminum foil-covered control; for remaining at 4 h: read-out: Residue (%) Exposure time 4 hrs.; for remaining at 8 h: read-out: Residue (%) Exposure time 8 hrs.
Procedure: Into 2.0 ml of acetone were dissolved 80 mg of each test compound. A 5 μl portion of the solution was taken and spread on a glass plate (Micro Standard Cover Glass, 18 m/m No. 1, 200 pcs, Matsunami Glass Ind., Ltd.) and the acetone was evaporated. Then, a similar glass plate was superimposed on the above plate in such a manner that the test liquid was sandwitched. The specimen was exposed to direct sunlight at an atmospheric temperature of 12° C. for a predetermined exposure time. As an unexposed control, a similar specimen was covered with an aluminum foil. The test liquid was washed away with 1.0 ml of methanol containing 0.04% of dioctyl phthalate as an internal reference and high-speed liquid chromatography was carried out on the washings to determine the residual amount of the test compound. The residue (%) was calculated with the value for the aluminum foil-covered control specimen as the standard.

houseflies = test: Settling mist mortality test against houseflies, oil preparations of Formulation Example 2 (Utility Example 3); assay type: in vivo, houseflies (Musca domestica); settings: oil preparation with 0.1 part compound and 0.1 part resmethrin per 100 parts, 24 hours
Procedure: To 0.1 part of each of Compounds [1] to [17] was added 0.1 part of resmethrin, followed by the addition of a sufficient amount of kerosene to make 100 parts. The mixture was stirred to obtain an oil preparation of each compound.
(§1) By the settling mist method, a mortality test against houseflies was carried out using the oil preparations made in Formulation Example 2 from Compounds [1], [2], [5] to [11] and [17]. After 24 hours, the flies were examined for deaths. The mortality (%) was not less than 90% for each of Compounds [1], [2], [5] to [11] and [17].

house-flies = test: Settling mist mortality test against houseflies, oil preparations of Formulation Example 3 (Utility Example 4); assay type: in vivo, houseflies (Musca domestica); settings: oil preparation with 0.1 part compound and 0.08 part permethrin per 100 parts, 24 hours
Procedure: To 0.1 part of each of Compounds [1] to [28] was added 0.08 part of permethrin, followed by the addition of a sufficient amount of kerosene to make 100 parts. The mixture was stirred to obtain an oil preparation of each compound.
as §1, with “against house-flies” for “against houseflies”, “preparations obtained” for “preparations made”, “Example 3” for “Example 2”

[3] = system: cockroaches (Blattella germanica); test: Mortality test against cockroaches by topical application method (Test Example 3); assay type: in vivo; settings: 1 μl of 1% solution in acetone, female cockroaches, 24 hours, 25° C.
Procedure: Each test compound was accurately weighed and made in a 1% solution in acetone. Then, 1 μl of the above solution was micropipetted onto the abdominal part of each female cockroach (Blattella germanica) under ether anaesthesia. The roaches were released in a high-walled dish together with feed and, after the disk was covered with a metal wire net, same was maintained at 25° C. Fifteen roaches per group were employed. After 24 hours, the test roaches were inspected for deaths and the mortality (%) for each group was calculated.

[4] = system: houseflies (Musca domestica); test: Mortality test against houseflies by topical application method (Test Example 1); assay type: in vivo; settings: female adult houseflies, 24 hours, 25° C.
Procedure: Each test compound was accurately weighed and a 1% solution and a 0.1% solution of the sample in acetone were prepared. A 1 μl portion of either of the above solutions was micropipetted onto the thoracic dorsal part of each female adult housefly (Musca domestica) under ether anaesthesia and the fly was released in a high-walled dish together with feed. The dish was covered with a metal-wire net and maintained at 25° C. After 24 hours, the test flies were inspected for deaths and the mortality (%) was calculated. Thirty test flies were used per concentration group.

[5] = system: houseflies (Musca domestica); test: Settling mist mortality test against houseflies, oil preparations of Formulation Example 1 (Utility Example 2); assay type: in vivo; settings: oil preparation with 0.2 part compound and 0.8 part piperonyl butoxide per 100 parts, 24 hours
Procedure: 0.2 part of each of Compounds [1], [2], [5] to [13] and [17] was prepared and 0.8 part of piperonyl butoxide was added to each of them. To this mixture was added a sufficient amount of kerosene to make 100 parts, followed by stirring. By this procedure there was obtained an oil preparation of each Compound.
as §1, with “houseflies (Musca domestica)” for “houseflies”, “preparations obtained according to” for “preparations made in”, “Example 1” for “Example 2”, “[11] […]” for “[11] and”

guppies = test: Fish toxicity test (Test Example 6); assay type: in vivo; settings: female guppies, 48 hours, 25° C.; concentration at which 90% or more were killed
Procedure: To 5 l of water were added 250 mg of sorpol SM-200 (registered trademark, Toho Chemical Co., Ltd.) or Tween-20 (commercial product) as an emulsifier (surfactant) as well as 2.5 ml of an acetone solution containing one of the test compounds in a predetermined concentration. The mixture was stirred well to prepare a test water. Ten female guppies from 3 to 4 months of age were released into the test water and maintained at 25° C. The concentration of the test compound at which 90% or more of the guppies were killed during the ensuring 48 hours was determined. (This concentration is referred to as LC90).

[6] = Hydrolysis resistance test (Test Example 5); assay type: physicochemical; settings: acetone/water, reflux for 2 days; read-out: Residue (%)
Procedure: Into about 8 ml of acetone were dissolved 100 mg of each test compound and, then, 1.0 g of water was added to this solution to prepare a mixed solution. This mixed solution was refluxed for 2 days. After concentration to about one half of the original volume and with the addition of dioctyl phthalate as an internal reference, the residual amount of the compound was determined by high-speed liquid chromatography. The residue (%) was then calculated.

Row | Structure (SMILES) | Mortality (%) (green rice leafhoppers) | mortality at 0.1 % [1] | remaining at 4 h [2] | remaining at 8 h [2] | Mortality (%) (houseflies) | Mortality (%) (house-flies) | mortality at 1 %, 0.01 mg [3] | Mortality (%) 1 μg/fly [4] | Mortality (%) 10 μg/fly [4] | Mortality (%) [5] | LC90 (guppies) | remaining at 48 h [6]
1 | CC(C)C(C=C(Cl)Cl)C(=O)OC(C#N)c1cccc(Oc2ccccc2)c1 (stereo not drawn) [Compound [1], α-Cyano-3-phenoxybenzyl α-(2,2-dichlorovinyl)isovalerate] | not less than 90% | ≥ 90% | 93% | 90% | not less than 90% | not less than 90% | 100% | 100% | 100% | not less than 90% | – | –
2 | C#CC(OC(=O)C(C=C(Cl)Cl)C(C)C)c1cccc(Oc2ccccc2)c1 (stereo not drawn) [[2], α-Ethynyl-3-phenoxybenzyl α-(2,2-dichlorovinyl)isovalerate] | not less than 90% | – | 97% | 100% | not less than 90% | not less than 90% | 80% | 100% | 100% | not less than 90% | Not less than 10 ppm | > 90%
